Measurements as given in patent EP1680415B1, “PYRROLIDINYL UREA DERIVATIVES AS ANGIOGENESIS INHIBITORS” (ABBOTT LABORATORIES, priority 2003, dated 2005).

Test system: HMVEC
Experiment: human microvascular endothelial (HMVEC) migration assay
Type: cell-based
Details: Inhibition of HMVEC migration, activators 15 ng/mL bFGF/VEGF, 4 hours at 37 °C, compared to a positive control; for inhibition at 0.0001 µM / inhibition at 10 pM: Homo sapiens; for inhibition at 10 pM: 0.01 nM
Method in brief: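 Dermal (single-donor) and neonatal microvascular endothelial cells, serum-starved overnight in DME/0.01% BSA, attached 2 h at 37 °C to gelatin-coated 5 µm membranes in a modified Boyden chamber. Test substances with 15 ng/mL bFGF/VEGF added; migration over 4 h at 37 °C. Stained migrated cells counted per high-power field, background subtracted, or given as % inhibition versus positive control.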

Row | Compound | inhibition at 0.0001 µM (0.1 nM) | inhibition at 10 pM | further results
1 | Cc1ccc(C(=O)N2CC[C@@H](NC(=O)N3CCN(CCc4cccs4)CC3)C2)cn1 [Example 79, N-{(3R)-1-[(6-methylpyridin-3-yl)carbonyl]pyrrolidin-3-yl}-4-(2-thien-2-ylethyl)piperazine-1-carboxamide] | 48% | – | –
2 | Cc1ccc(C(=O)N2CC[C@@H](NC(=O)N3CCN(CC(=O)N4CCCCC4)CC3)C2)cn1 [Example 80, N-{(3R)-1-[(6-methylpyridin-3-yl)carbonyl]pyrrolidin-3-yl}-4-(2-oxo-2-piperidin-1-ylethyl)piperazine-1-carboxamide] | 73% | – | –
3 | Cc1ccc(C(=O)N2CC[C@@H](NC(=O)N3CCN(C(=O)C4CCCCC4)CC3)C2)cn1 [Example 81, 4-(cyclohexylcarbonyl)-N-{(3R)-1-[(6-methylpyridin-3-yl)carbonyl]pyrrolidin-3-yl}piperazine-1-carboxamide] | 55% | – | –
4 | Cc1ccc(C(=O)N2CC[C@@H](NC(=O)N(CCO)Cc3ccccc3)C2)cn1 [Example 82, N-benzyl-N-(2-hydroxyethyl)-N'-{(3R)-1-[(6-methylpyridin-3-yl)carbonyl]pyrrolidin-3-yl}urea] | 57% | – | –
5 | Cc1ccc(C(=O)N2CCC(NC(=O)N(C)CC(O)c3ccccc3)C2)cn1 (centres unmarked) [Example 83, N-(2-hydroxy-2-phenylethyl)-N-methyl-N'-{1-[(6-methylpyridin-3-yl)carbonyl]pyrrolidin-3-yl}urea] | 80% | – | –
6 | Cc1ccc(C(=O)N2CC[C@@H](NC(=O)N(C)CCc3ccccn3)C2)cn1 [Example 84, N-methyl-N'-{(3R)-1-[(6-methylpyridin-3-yl)carbonyl]pyrrolidin-3-yl}-N-(2-pyridin-2-ylethyl)urea] | 62% | – | –
7 | Cc1ccc(C(=O)N2CC[C@@H](NC(=O)N3CCC(O)CC3)C2)cn1 [Example 85, 4-hydroxy-N-{(3R)-1-[(6-methylpyridin-3-yl)carbonyl]pyrrolidin-3-yl}piperidine-1-carboxamide] | 55% | – | –
8 | Cc1ccc(C(=O)N2CC[C@@H](NC(=O)N3CCC(C(N)=O)CC3)C2)cn1 [Example 86, N^1-{(3R)-1-[(6-methylpyridin-3-yl)carbonyl]pyrrolidin-3-yl}piperidine-1,4-dicarboxamide] | 74% | – | –
9 | Cc1ccc(C(=O)N2CC[C@@H](NC(=O)N3CCC4(CC3)OCCO4)C2)cn1 [Example 87, N-{(3R)-1-[(6-methylpyridin-3-yl)carbonyl]pyrrolidin-3-yl}-1,4-dioxa-8-azaspiro[4.5]decane-8-carboxamide] | 55% | – | –
10 | Cc1ccc(C(=O)N2CC[C@@H](NC(=O)N3CC(C)OC(C)C3)C2)cn1 (stereo partly drawn) [Example 88, 2,6-dimethyl-N-{(3R)-1-[(6-methylpyridin-3-yl)carbonyl]pyrrolidin-3-yl}morpholine-4-carboxamide] | – | 81% | –
11 | Cc1ccc(C(=O)N2CC[C@@H](NC(=O)N3CCN(c4ccccc4)CC3)C2)cn1 [Example 89, N-{(3R)-1-[(6-methylpyridin-3-yl)carbonyl]pyrrolidin-3-yl}-4-phenylpiperazine-1-carboxamide] | 62% | – | –
12 | Cc1ccc(C(=O)N2CC[C@@H](NC(=O)N3CCN(c4ccccn4)CC3)C2)cn1 [Example 90, N-{(3R)-1-[(6-methylpyridin-3-yl)carbonyl]pyrrolidin-3-yl}-4-pyridin-2-ylpiperazine-1-carboxamide] | – | 52% | –
13 | Cc1ccc(C(=O)N2CC[C@@H](NC(=O)N3CCN(c4ccccc4F)CC3)C2)cn1 [Example 91, 4-(2-fluorophenyl)-N-{(3R)-1-[(6-methylpyridin-3-yl)carbonyl]pyrrolidin-3-yl}piperazine-1-carboxamide] | – | 57% | –
14 | Cc1ccc(C(=O)N2CC[C@@H](NC(=O)N3CCN(c4ccc(F)cc4)CC3)C2)cn1 [Example 92, 4-(4-fluorophenyl)-N-{(3R)-1-[(6-methylpyidin-3-yl)carbonyl]pyrrolidin-3-yl}piperazine-1-carboxamide] | – | 67% | –
15 | COc1ccccc1N1CCN(C(=O)N[C@@H]2CCN(C(=O)c3ccc(C)nc3)C2)CC1 [Example 93, 4-(2-methoxyphenyl)-N-{(3R)-1-[(6-methylpyridin-3-yl)carbonyl]pyrrolidin-3-yl}piperazine-1-carboxamide] | 72% | – | –
16 | CCOC(=O)CN1CCN(C(=O)N[C@@H]2CCN(C(=O)c3ccc(C)nc3)C2)CC1 [Example 95, ethyl {4-[({(3R)-1-[(6-methylpyridin-3-yl)carbonyl]pyrrolidin-3-yl}amino)carbonyl]piperazin-1-yl} acetate] | – | 62% | –
17 | Cc1ccc(C(=O)N2CC[C@@H](NC(=O)N3CCN(c4ccc([N+](=O)[O-])cc4)CC3)C2)cn1 [Example 96, N-{(3R)-1-[(6-methylpyridin-3-yl)carbonyl]pyrrolidin-3-yl}-4-(4-nitrophenyl)piperazine-1-carboxamide] | 75% | – | –
18 | COCC1CCCN(C(=O)N[C@@H]2CCN(C(=O)c3ccc(C)nc3)C2)C1 (stereo partly drawn) [Example 97, 3-(methoxymethyl)-N-{(3R)-1-[(6-methylpyridin-3-yl)carbonyl]pyrrolidin-3-yl}piperidine-1-carboxamide] | – | 54% | –
19 | N-{(3R)-1-[(2-chloro-6-methylpyridin-3-yl)carbonyl]pyrrolidin-3-yl}-1,3,3-trimethyl-6-azabicyclo[3.2.1]octane-6-carboxamide [Example 36] | – | – | % Inhibition @ 1 nM (1 nM): 64%
20 | N-{(3R)-1-[(6-methyl-3-pyridinyl)carbonyl]-3-pyrrolidinyl}-N'-[2-(2-thienyl)ethyl]urea [Example 28] | – | – | % Inhibition @ 0.1 nM (0.1 nM): 86%
